Drawing on the supplement of paper PMC11061612, this text covers Bliss excess for seven compounds.

Each structure is given as a SMILES string.

What all share (experiment): Bliss excess, mean over the matrix (fraction); higher = more synergy
One assay deals with 5637 (Bladder Carcinoma). The procedure, abridged:
(§1)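 Cell lines grown in DMEM/F12 or RPMI with 10% FBS were plated in 1536-well plates and held 24 hours at 37°C, 5% CO2 before 72 hours of exposure to two-drug dose matrices, with DMSO typically at 0.2%. CellTiter-Glo 2.0 luminescence gave viability, which was converted to inhibition. Vehicle wells were set to 0 and blank wells to 1. Combination Emax is the second-highest inhibition in the matrix, and Bliss excess is the observed combination effect minus the expected EA + EB − EA·EB, where EA and EB are the single-agent effects.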

In the next assay the test system is A101D (Melanoma). The procedure, abridged: as §1
Assay [1] deals with A253 (Head and Neck Carcinoma). The procedure, abridged: as §1
In assay [2] the test system is A2780 (Ovarian Carcinoma). The procedure, abridged:
as §1

The subject of assay [3] is CGTH-W-1 (Thyroid Gland Carcinoma). The procedure, abridged:
as §1

The test system of assay [4] is DU-4475 (Breast Carcinoma). The procedure, abridged:
as §1

For assay [5], the system named is EPLC-272H (Other Solid Carcinomas). The procedure, abridged: as §1
A further assay relates to EW-16 (Ewing's Sarcoma). The procedure, abridged: as §1
The subject of assay [6] is G-402 (Other Solid Carcinomas). The gist of the method: as §1
For assay [7], the system named is GA-10 (Burkitt's Lymphoma). The procedure, abridged: as §1
The test system of assay [8] is JHH-2 (Hepatocellular Carcinoma). The gist of the method: as §1
For assay [9], the system named is KYSE-220 (Esophageal Squamous Cell Carcinoma). The gist of the method:
as §1

For assay [10], the system named is LU-165 (Small Cell Lung Carcinoma). The gist of the method: as §1
Assay [11] relates to NCI-H1651 (Lung Adenocarcinoma). The procedure, abridged: as §1
Assay [12] has as its system NCI-H2087 (Lung Adenocarcinoma). The gist of the method: as §1
Assay [13] concerns NCI-H2228 (Lung Adenocarcinoma). The gist of the method: as §1
For the next assay, the system named is RH-41 (Rhabdomyosarcoma). The gist of the method: as §1
The test system of assay [14] is SW620 (Colorectal Carcinoma). The procedure, abridged:
as §1

Assay [15] deals with UACC-812 (Breast Carcinoma). The procedure, abridged: as §1
Assay [16] deals with huH-1 (Hepatocellular Carcinoma). The procedure, abridged:
as §1

Take `CN(CCO)CC[C@H](CSc1ccccc1)Nc1ccc(S(=O)(=O)NC(=O)c2ccc(N3CCC([C@@H](O)c4ccccc4-c4ccc(Cl)cc4)CC3)cc2)cc1S(=O)(=O)C(F)(F)F` [AZD4320] + CN(C)CCCOc1ccc(-c2ccc3ncc4c(c3c2)n(C2CCOCC2)c(=O)n4C)cn1 [AZD0156] (first compound max 1 µM, 7x7, partner max 1 µM): the Bliss excess with 5637 (Bladder Carcinoma) was -0.0311; in the assay on A101D (Melanoma), -0.0298; in [1] it was 0.0114; in assay [2] it was -0.0519; in [3], -0.0346; in [4], -0.0498. Besides, the Bliss excess in assay [5] is 0.0102; with EW-16 (Ewing's Sarcoma), -0.003; in assay [6] it was -0.0458; in assay [7], 0.0026; in assay [8], -0.0486; in assay [9], -0.0385. For the same compound, the Bliss excess in assay [10] is -0.025; in assay [11] it was -0.026; in assay [12], -0.0496; in assay [13] it was -0.0225; in the assay on RH-41 (Rhabdomyosarcoma) it was -0.0265; in [14], -0.029. The Bliss excess in assay [15] was -0.0283; in assay [16], -0.0419.

Consider `COc1nnc2ccc(N3CCC(c4ccc(OCCN5CCN(C)C(=O)[C@H]5C)cc4)CC3)nn12` [AZD5153] + C=CCn1c(=O)c2cnc(Nc3ccc(N4CCN(C)CC4)cc3)nc2n1-c1cccc(C(C)(C)O)n1 [AZD1775] (first compound max 1 µM, partner max 1 µM), for which the Bliss excess with 5637 (Bladder Carcinoma) was -0.0321; with A101D (Melanoma), -0.0825; in assay [1], -0.0328; in assay [2], -0.0523; in assay [3], 0.0137; in assay [4], 0.0311. In addition, the Bliss excess in assay [5] is -0.0939; in the assay with EW-16 (Ewing's Sarcoma), -0.037; in assay [6] it was -0.0226; in assay [7] it was -0.0367; in assay [8], -0.1; in assay [9], -0.0622. Also, the Bliss excess is 0.0026 in assay [10]; 0.0305 in assay [11]; -0.0368 in assay [12]; -0.0784 in assay [13]; 0.0035 with RH-41 (Rhabdomyosarcoma); -0.0753 in assay [14]. For the same compound, the Bliss excess in assay [15] is -0.0066; in assay [16] it was 0.024.

With `COc1nnc2ccc(N3CCC(c4ccc(OCCN5CCN(C)C(=O)[C@H]5C)cc4)CC3)nn12` [AZD5153] + CC1(C)CCC(CN2CCN(c3ccc(C(=O)NS(=O)(=O)c4ccc(NCC5CCOCC5)c([N+](=O)[O-])c4)c(Oc4cnc5[nH]ccc5c4)c3)CC2)=C(c2ccc(Cl)cc2)C1 [Venetoclax] (first compound max 1 µM, 7x7, partner max 1 µM), the Bliss excess in the assay with 5637 (Bladder Carcinoma) is -0.0407; with A101D (Melanoma) it was -0.0731; in assay [1], -0.0724; in assay [2], -0.0689; in assay [3], -0.0407; in assay [4] it was 0.0181. For the same compound, the Bliss excess in assay [5] is -0.0378; in the assay on EW-16 (Ewing's Sarcoma) it was -0.0593; in assay [6], -0.0478; in assay [7], -0.0497; in assay [8] it was -0.0068; in [9], -0.015. Also, the Bliss excess in assay [10] is -0.0522; in [11] it was -0.0338; in assay [12], -0.0427; in assay [13], -0.0523; in the assay with RH-41 (Rhabdomyosarcoma) it was 0.0374; in assay [14], -0.0671. The Bliss excess in assay [15] was -0.0947; in assay [16], -0.0962.

In the case of `COc1nnc2ccc(N3CCC(c4ccc(OCCN5CCN(C)C(=O)[C@H]5C)cc4)CC3)nn12` [AZD5153] + CCN(CCO)CCCOc1ccc2c(Nc3cc(CC(=O)Nc4cccc(F)c4)[nH]n3)ncnc2c1 [AZD2811] (first compound max 1 µM, 7x7, partner max 1 µM), the Bliss excess with 5637 (Bladder Carcinoma) is -0.107; in the assay on A101D (Melanoma), -0.104; in assay [1], -0.0153; in [2], -0.0295; in assay [3], 0.0228; in assay [4], 0.0934. In addition, the Bliss excess was -0.0387 in assay [5]; 0.0068 in the assay on EW-16 (Ewing's Sarcoma); -0.0728 in [6]; -0.122 in assay [7]; -0.0496 in [8]; 0.0083 in assay [9]. The Bliss excess in assay [10] is -0.06; in [11], 0.004; in [12], -0.0645; in assay [13] it was -0.0285; with RH-41 (Rhabdomyosarcoma) it was 0.021; in [14], -0.0002. Besides, the Bliss excess was -0.0742 in [15] and 0.0201 in [16].

Consider `COc1nnc2ccc(N3CCC(c4ccc(OCCN5CCN(C)C(=O)[C@H]5C)cc4)CC3)nn12` [AZD5153] + C[C@@H]1COCCN1C2=NC(=NC(=C2)C3(CC3)[S@](=N)(=O)C)C4=C5C=CNC5=NC=C4 [AZD6738] (first compound max 1 µM, 7x7, partner max 10 µM), for which the Bliss excess with 5637 (Bladder Carcinoma) was -0.0001; in the assay on A101D (Melanoma) it was -0.0186; in [1], 0.0315; in assay [2] it was -0.0058; in assay [3], 0.0604; in assay [4], 0.0294. Further, the Bliss excess is -0.0629 in assay [5]; 0.0667 in the assay on EW-16 (Ewing's Sarcoma); 0.0025 in assay [6]; -0.0177 in assay [7]; -0.0066 in assay [8]; 0.0019 in assay [9]. Moreover, the Bliss excess is -0.0048 in [10]; 0.0178 in assay [11]; 0.0404 in assay [12]; -0.0179 in assay [13]; 0.0514 with RH-41 (Rhabdomyosarcoma); 0.0276 in assay [14]. In addition, the Bliss excess came to 0.0371 in [15] and 0.031 in assay [16].

Turning to `COc1nnc2ccc(N3CCC(c4ccc(OCCN5CCN(C)C(=O)[C@H]5C)cc4)CC3)nn12` [AZD5153] + Cc1c2c(nn1C)CSCc1cc(n(C)n1)CSc1cc(c3ccccc3c1)OCCCc1c(C(=O)O)n(C)c3c-2c(Cl)ccc13 [AZD5991] (first compound max 1 µM, 7x7, partner max 1 µM), the Bliss excess is -0.0555 in the assay with 5637 (Bladder Carcinoma); 0.0406 with A101D (Melanoma); 0.0071 in assay [1]; -0.0324 in [2]; -0.025 in [3]; 0.0617 in [4]. In addition, the Bliss excess is -0.026 in [5]; -0.0412 with EW-16 (Ewing's Sarcoma); 0.044 in assay [6]; -0.0598 in [7]; -0.119 in [8]; -0.0229 in [9]. The Bliss excess in [10] was -0.0173; in assay [11] it was -0.0273; in assay [12], -0.0328; in assay [13], -0.0261; in the assay with RH-41 (Rhabdomyosarcoma), 0.012; in [14] it was -0.0457. In addition, the Bliss excess came to 0.0365 in assay [15] and 0.0196 in assay [16].

As for `COc1nnc2ccc(N3CCC(c4ccc(OCCN5CCN(C)C(=O)[C@H]5C)cc4)CC3)nn12` [AZD5153] + Cn1cnc2c(F)c(Nc3ccc(Br)cc3Cl)c(C(=O)NOCCO)cc21 [Selumetinib] (first compound max 1 µM, 7x7, partner max 10 µM), the Bliss excess is 0.0132 with 5637 (Bladder Carcinoma); -0.081 in the assay on A101D (Melanoma); 0.0009 in assay [1]; -0.0118 in assay [2]; -0.0059 in [3]; 0.0219 in assay [4]. Besides, the Bliss excess was 0.0173 in assay [5]; -0.0456 with EW-16 (Ewing's Sarcoma); -0.0421 in assay [6]; -0.0813 in [7]; 0.0024 in assay [8]; 0.123 in assay [9]. For the same compound, the Bliss excess in assay [10] is -0.0494; in [11], -0.0319; in assay [12] it was -0.0192; in assay [13], -0.0535; in the assay on RH-41 (Rhabdomyosarcoma) it was -0.0176; in [14], -0.0083. Moreover, the results for the Bliss excess in [15] and in assay [16] were 0.0089 and -0.0102, respectively.
